From PMC7769078 (International Journal of Nanomedicine, 2020) come the findings set out here.

For one data set, the system named is SH-SY5Y cells. The data set is described as follows: Cytoprotection against MPP+-induced cell death in SH-SY5Y cells. Format: cell-based, human. The conditions noted are these: for viability of MPP+-treated SH-SY5Y cells: 2 h pre-treatment, then 2 mM MPP+ 36 h.
The test system of the next data set is zebrafish larvae (7 dpf). The data set can be described thus: C6-NPs endocytosis in larval zebrafish with endocytic inhibitors. Type of data set: in vivo, zebrafish (Danio rerio). The conditions noted are these: 7 dpf larvae, 30 min inhibitor, C6-NPs 100 ng/mL 30 min.

Turning to Ginkgolide B [GB], the “viability of MPP+-treated SH-SY5Y cells” value in the data set on SH-SY5Y cells (1 μM) amounted to 60%; with SH-SY5Y cells (5 μM), 65%; in the data set on SH-SY5Y cells (10 μM), 71%; in the data set on SH-SY5Y cells (20 μM), 78%.

As to methyl-β-cyclodextrin [MβCD], the “inhibitory effect on C6-NPs internalization in zebrafish larvae” value with zebrafish larvae (7 dpf) is on record as “most profound inhibitory effect”.

As to `CN(C)CCCN1c2ccccc2Sc2ccc(Cl)cc21` [CPZ, chlorpromazine], the “inhibitory effect on C6-NPs internalization in zebrafish larvae” value in the data set on zebrafish larvae (7 dpf) is on record as “most profound inhibitory effect”.

With `C[n+]1ccc(-c2ccccc2)cc1` [MPP^+, 1-methyl-4-phenylpyridinium ion], the “cell death induced in SH-SY5Y cells” value in the data set with SH-SY5Y cells (2 mM MPP+, 36 h) is given as 47.6%.
